According to ChEMBL document CHEMBL1150727, “New cytotoxic aristolactams from Pararistolochia flos-avis” (1987):
≈ marks a conversion by molar mass, not a printed value. Calls of active or inactive are those of the source. No cut-off for these calls is given here.

Columns and labels:
P388 = assay: Cytotoxicity against mouse P388 cells; assay type: functional
KB = assay: Cytotoxicity against human KB cells; assay type: functional
[1] = read-out: ED50 (the source's name)

Compound	Activity (P388)	Activity (KB)	EC50 (P388; [1]) [mg/L]	EC50 (KB; [1]) [mg/L]
COc1cccc2c1cc1c3c(cc4c(c32)OCO4)C(=O)N1	inactive	inactive		
COc1c(O)c(OC)c2c3c(cc4ccccc42)NC(=O)c13	inactive	inactive		
COc1cc2c3c(cc4ccccc4c3c1O)NC2=O	inactive	inactive		
COc1c(O)cc2c3c(cc4ccccc4c13)NC2=O [ARISTOLACTAM AII]			3.2 (≈ 12.1 µM)	2.1 (≈ 7.92 µM)
